# Patent US8835429B2, “Pyrimidine compounds, their use as mTOR kinase and Pl3 kinase inhibitors, and their syntheses” (Wyeth LLC, priority 2009, dated 2014)
# Tests used:
# PI3K-alpha = PI3K-alpha (Homo sapiens, UniProt P42336); assay: PI3K-alpha fluorescence polarization assay; format: biochemical; conditions: 20 μM PIP2, 25 μM ATP; read-out: PI3Kα IC50
# Description: The reaction buffer was 20 mM HEPES, pH 7.5, 2 mM MgCl2, 0.05% CHAPS; and 0.01% βME (added fresh). The stop/detection buffer was 100 mM HEPES, pH 7.5, 4 mM EDTA, 0.05% CHAPS; ATP 20 mM in water; PIP2 (diC8, Echelon, Salt Lake City Utah cat #P-4508) 1 mM in water (MW=856.5). The GST-GRP was 1.75 mg/mL or 1.4 mg/mL in 10% glycerol. The red detector (TAMRA) was 2.5 μM. Nunc 384-well black polypropylene fluorescent plates were used for PI3K assays.
# The assay is run by placing 5 μL of diluted enzyme per well, then 5 μL of diluted compound (or 9.5 μL enzyme then 0.5 μL compound in DMSO) is added and mixed. Then, 10 μL substrate is added to start the reaction. The samples are incubated 30-60 minutes, then the reaction is stopped by adding 20 μL stop/detector mix. PI3K is diluted with reaction buffer (e.g., 5 μL or 7.5 μL PI3K into 620 μL reaction buffer), and 5 μL of diluted enzyme is used per well. A 5 μL portion of reaction buffer or of drug diluted in buffer (e.g., 4 μL/100 so final DMSO is 1% in reaction) is added to each. Pipetting up and down mixes the samples. Alternatively, the enzyme can be diluted to 1215 μL. In this case 9.8 μL is added per well and 0.2 μL compound is added in DMSO.
# To prepare 1 mL of substrate solution, 955 μL reaction buffer, 40 μL PIP2, and 2.5 μL ATP are mixed. 10 μL of substrate is added to each well to start the reaction. […] The stop/detector mix is prepared by mixing 4 μL red detector and 1.6 μL or 2.0 μL GST-GRP with 1 mL stop buffer, which results in 10 nM probe and 70 nM GST-GRP. 20 μL of the stop/detector mix is added to each well to stop the reaction. The plates are read after 30-90 minutes keeping the red probe solutions dark. For the zero time point, stop/detector mix is added to the enzyme just before adding substrate. For an extra control, stop/detector mix is added to buffer (no enzyme) and substrate or to just buffer (no substrate). […] The recommended reaction has 0.06 μL per 20 μL (0.015 μg/20 μL) or 0.01125 μg/15 μL or 0.75 μg/mL.
# Plates are read on machines with filters for TAMRA. The units are mP with no enzyme controls reading app 190-220 mP units. Fully active enzyme reduces fluorescence polarization down to 70-100 mP after 30 minutes. An active compound raises the mP values halfway to control or to 120-150 mP units.
# LNCap = assay: In vitro cell growth assay (MTS), LNCap; format: cell-based; conditions: LNCaP, 72 h, human prostate line, three days after drug treatment
# Description: (§1) The cell lines used were human prostate lines LNCap and PC3MM2, human breast lines MDA468 and MCF7, human renal line HTB44 (A498), human colon line HCT116, and human ovarian line OVCAR3. Cells were plated in 96-well culture plates. One day following plating, the inhibitors were added to cells. Three days after drug treatment, viable cell densities were determined by metabolic conversion (by viable cells) of the dye MTS, a well-established cell proliferation assay. The assays were performed using an assay kit purchased from Promega Corp. (Madison, Wis.) following the protocol supplied with the kit. The MTS assay results were read in a 96-well plate reader by measuring absorbance at 490 nm. The effect of each treatment was calculated as percent of control growth relative to the vehicle-treated cells grown in the same culture plate.
# mTOR = mTOR (Homo sapiens, UniProt P42345); assay: mTOR enzyme assay (DELFIA, purified FLAG-TOR, His6-S6K substrate); format: biochemical; set-up: FLAG; conditions: 100 μM ATP, 2 hours
# Sequence of mTOR (P42345 1360-2549 limits assumed): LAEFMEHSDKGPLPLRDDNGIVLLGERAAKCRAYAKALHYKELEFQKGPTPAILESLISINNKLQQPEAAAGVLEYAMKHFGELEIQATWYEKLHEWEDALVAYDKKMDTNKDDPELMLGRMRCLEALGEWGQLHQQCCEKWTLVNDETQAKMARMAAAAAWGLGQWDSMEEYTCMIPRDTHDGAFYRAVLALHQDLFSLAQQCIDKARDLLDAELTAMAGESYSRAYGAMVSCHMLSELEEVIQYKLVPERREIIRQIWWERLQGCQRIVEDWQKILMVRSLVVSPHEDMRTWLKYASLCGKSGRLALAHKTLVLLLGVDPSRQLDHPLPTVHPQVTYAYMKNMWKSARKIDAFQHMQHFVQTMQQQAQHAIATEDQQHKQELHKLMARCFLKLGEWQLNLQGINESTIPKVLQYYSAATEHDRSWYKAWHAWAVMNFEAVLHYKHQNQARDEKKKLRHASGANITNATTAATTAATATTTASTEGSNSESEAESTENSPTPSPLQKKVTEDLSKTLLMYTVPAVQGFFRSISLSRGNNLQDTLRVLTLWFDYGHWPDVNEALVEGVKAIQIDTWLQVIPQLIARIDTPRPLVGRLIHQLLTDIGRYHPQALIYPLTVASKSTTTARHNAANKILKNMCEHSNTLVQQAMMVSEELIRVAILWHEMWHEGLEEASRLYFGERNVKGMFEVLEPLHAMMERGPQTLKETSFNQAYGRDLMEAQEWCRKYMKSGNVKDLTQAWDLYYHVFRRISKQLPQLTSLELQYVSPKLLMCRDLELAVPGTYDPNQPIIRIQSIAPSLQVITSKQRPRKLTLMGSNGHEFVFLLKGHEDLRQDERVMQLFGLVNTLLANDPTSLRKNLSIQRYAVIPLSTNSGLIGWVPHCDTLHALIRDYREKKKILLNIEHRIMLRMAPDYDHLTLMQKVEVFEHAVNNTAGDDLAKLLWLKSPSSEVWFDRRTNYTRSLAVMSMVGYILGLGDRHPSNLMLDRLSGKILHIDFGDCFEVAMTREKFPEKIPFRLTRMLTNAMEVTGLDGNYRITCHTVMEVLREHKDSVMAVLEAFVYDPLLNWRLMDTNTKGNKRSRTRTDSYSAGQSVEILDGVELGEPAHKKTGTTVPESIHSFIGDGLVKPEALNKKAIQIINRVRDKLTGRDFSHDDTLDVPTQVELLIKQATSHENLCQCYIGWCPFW
# MDA468 = assay: In vitro cell growth assay (MTS), MDA468; format: cell-based; conditions: 72 h, human breast line MDA468, three days after drug treatment, read-out: MDA IC50
# Description: as §1
# Sequence of PI3K-alpha (P42336 whole entry, species assumed): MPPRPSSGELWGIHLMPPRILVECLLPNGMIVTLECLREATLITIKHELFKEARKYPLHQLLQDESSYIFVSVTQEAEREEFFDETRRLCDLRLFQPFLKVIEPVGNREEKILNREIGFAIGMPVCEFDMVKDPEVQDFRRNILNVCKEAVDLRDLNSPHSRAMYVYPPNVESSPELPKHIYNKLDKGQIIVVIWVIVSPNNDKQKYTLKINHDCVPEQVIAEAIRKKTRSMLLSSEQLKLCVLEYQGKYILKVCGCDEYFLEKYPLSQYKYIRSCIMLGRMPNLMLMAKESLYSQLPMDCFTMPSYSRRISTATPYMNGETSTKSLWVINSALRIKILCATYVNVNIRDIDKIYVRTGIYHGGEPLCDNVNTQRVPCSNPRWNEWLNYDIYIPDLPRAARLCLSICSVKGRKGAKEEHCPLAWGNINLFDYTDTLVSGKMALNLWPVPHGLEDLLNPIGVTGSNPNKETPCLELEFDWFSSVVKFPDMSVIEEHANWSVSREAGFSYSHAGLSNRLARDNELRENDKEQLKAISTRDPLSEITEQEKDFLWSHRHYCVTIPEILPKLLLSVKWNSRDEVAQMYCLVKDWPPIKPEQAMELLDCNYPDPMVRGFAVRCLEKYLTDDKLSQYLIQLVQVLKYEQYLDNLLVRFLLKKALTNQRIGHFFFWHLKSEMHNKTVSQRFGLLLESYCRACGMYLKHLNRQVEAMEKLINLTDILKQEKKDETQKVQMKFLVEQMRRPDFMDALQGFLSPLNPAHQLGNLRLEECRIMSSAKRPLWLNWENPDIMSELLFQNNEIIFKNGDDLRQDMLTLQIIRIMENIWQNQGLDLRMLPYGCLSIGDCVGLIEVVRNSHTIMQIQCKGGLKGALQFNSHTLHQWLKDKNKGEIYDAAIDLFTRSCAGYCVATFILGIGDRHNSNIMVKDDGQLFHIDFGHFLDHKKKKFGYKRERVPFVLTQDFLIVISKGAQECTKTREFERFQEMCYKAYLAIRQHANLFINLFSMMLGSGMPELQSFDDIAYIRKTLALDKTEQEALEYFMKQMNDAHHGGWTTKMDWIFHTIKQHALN
# Sequence of PI3K-alpha (P27986 whole entry partner, species assumed): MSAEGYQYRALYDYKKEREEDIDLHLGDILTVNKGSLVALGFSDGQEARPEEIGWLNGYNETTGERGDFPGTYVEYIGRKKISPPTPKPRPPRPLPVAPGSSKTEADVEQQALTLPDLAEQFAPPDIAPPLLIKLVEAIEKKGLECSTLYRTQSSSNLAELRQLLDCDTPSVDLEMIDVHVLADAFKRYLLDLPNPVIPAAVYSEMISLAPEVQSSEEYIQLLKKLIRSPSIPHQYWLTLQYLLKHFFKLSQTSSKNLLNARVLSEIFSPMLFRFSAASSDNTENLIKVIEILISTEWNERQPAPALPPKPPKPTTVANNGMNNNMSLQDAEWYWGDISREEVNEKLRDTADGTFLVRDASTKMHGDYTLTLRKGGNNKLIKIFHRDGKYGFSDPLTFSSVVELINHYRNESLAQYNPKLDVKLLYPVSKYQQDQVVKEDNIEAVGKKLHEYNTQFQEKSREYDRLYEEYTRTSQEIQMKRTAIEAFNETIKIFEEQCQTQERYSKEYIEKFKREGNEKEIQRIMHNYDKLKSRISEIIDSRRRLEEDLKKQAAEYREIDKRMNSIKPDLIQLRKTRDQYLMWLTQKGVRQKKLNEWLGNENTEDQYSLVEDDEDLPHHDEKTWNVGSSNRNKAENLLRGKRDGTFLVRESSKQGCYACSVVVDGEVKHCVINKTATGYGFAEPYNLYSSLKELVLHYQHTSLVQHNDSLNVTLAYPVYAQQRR
SMILES,IC50 (PI3K-alpha) [nM],IC50 (LNCap) [nM],IC50 (mTOR) [nM],IC50 (MDA468) [nM]
"CN1CCN(c2ccc(NC(=O)Nc3ccc(-c4nc(N5CC6CCC(C5)O6)cc(N5CC6CCC(C5)O6)n4)cc3)cc2)CC1 [1-[4-(4,6-di-8-oxa-3-azabicyclo[3.2.1]oct-3-ylpyrimidin-2-yl)phenyl]-3-[4-(4-methylpiperazin-1-yl)phenyl]urea]",328,2.4,2.55,19
CNC(=O)Nc1ccc(-c2nc(N3CC4CCC(C3)O4)cc(C(F)(F)F)n2)cc1 [1-methyl-3-{4-[4-(8-oxa-3-azabicyclo[3.2.1]oct-3-yl)-6-(trifluoromethyl)pyrimidin-2-yl]phenyl}urea],1550,670,11.5,2100
CC(C)Nc1cc(N2C3CCC2COC3)nc(-c2ccc(NC(=O)Nc3ccc(CN4CCN(C)CC4)cc3)cc2)n1 [1-{4-[4-(isopropylamino)-6-(3-oxa-8-azabicyclo[3.2.1]oct-8-yl)pyrimidin-2-yl]phenyl}-3-{4-[(4-methylpiperazin-1-yl)methyl]phenyl}urea],3410,70,3.2,110
CNC(=O)Nc1ccc(-c2nc(CS(C)(=O)=O)cc(N3CC4CCC(C3)O4)n2)cc1 [1-methyl-3-(4-{4-[(methylsulfonyl)methyl]-6-(8-oxa-3-azabicyclo[3.2.1]oct-3-yl)pyrimidin-2-yl}phenyl)urea],1730,2050,13.5,3300
Nc1ccc(-c2nccc(N3CC4CCC(C3)O4)n2)cc1 [4-[4-(8-oxa-3-azabicyclo[3.2.1]oct-3-yl)pyrimidin-2-yl]aniline],6850,41000,4000,≥ 60000
"CCN(C(=O)Nc1ccncc1)c1ccc(-c2nc(N3CC4CCC(C3)O4)cc(N3CC4CCC(C3)O4)n2)cc1 [1-[4-(4,6-di-8-oxa-3-azabicyclo[3.2.1]oct-3-ylpyrimidin-2-yl)phenyl]-1-ethyl-3-pyridin-4-ylurea]",2260,5800,200,20000
CCNC(=O)Nc1ccc(-c2nc(CS(C)(=O)=O)cc(N3CC4CCC(C3)O4)n2)cc1 [1-ethyl-3-(4-{4-[(methylsulfonyl)methyl]-6-(8-oxa-3-azabicyclo[3.2.1]oct-3-yl)pyrimidin-2-yl}phenyl)urea],1810,1000,5.75,1900
CS(=O)(=O)Cc1cc(N2CC3CCC(C2)O3)nc(-c2ccc(NC(=O)NC3CC3)cc2)n1 [1-cyclopropyl-3-(4-{4-[(methylsulfonyl)methyl]-6-(8-oxa-3-azabicyclo[3.2.1]oct-3-yl)pyrimidin-2-yl}phenyl)urea],4640,1000,5.7,2500
"CN1CCN(C(=O)c2ccc(NC(=O)Nc3ccc(-c4nc(N5C6CCC5COC6)cc(N5C6CCC5COC6)n4)cc3)cc2)CC1 [1-[4-(4,6-di-3-oxa-8-azabicyclo[3.2.1]oct-8-ylpyrimidin-2-yl)phenyl]-3-{4-[(4-methylpiperazin-1-yl)carbonyl]phenyl}urea]",129,≤ 0.8,0.94,0.8
"CN1CCN(c2ccc(NC(=O)Nc3ccc(-c4nc(N5C6CCC5COC6)cc(N5C6CCC5COC6)n4)cc3)cc2)CC1 [1-[4-(4,6-di-3-oxa-8-azabicyclo[3.2.1]oct-8-ylpyrimidin-2-yl)phenyl]-3-[4-(4-methylpiperazin-1-yl)phenyl]urea]",1140,≤ 0.8,1.7,0.8
CNC(=O)Nc1ccc(-c2nc(NC(C)C)cc(N3CC4CCC(C3)O4)n2)cc1 [1-methyl-3-(4-{4-[(1-methylethyl)amino]-6-(8-oxa-3-azabicyclo[3.2.1]oct-3-yl)pyrimidin-2-yl}phenyl)urea],810,500,12,2100
"CN1CCN(Cc2ccc(NC(=O)Nc3ccc(-c4nc(N5C6CCC5COC6)cc(N5C6CCC5COC6)n4)cc3)cc2)CC1 [1-[4-(4,6-di-3-oxa-8-azabicyclo[3.2.1]oct-8-ylpyrimidin-2-yl)phenyl]-3-{4-[(4-methylpiperazin-1-yl)methyl]phenyl}urea]",1950,≤ 0.8,2.25,4
"CNC(=O)Nc1ccc(-c2nc(N3CC4CCC(C3)O4)cc(N3CC4CCC(C3)O4)n2)cc1 [1-[4-(4,6-di-8-oxa-3-azabicyclo[3.2.1]oct-3-ylpyrimidin-2-yl)phenyl]-3-methylurea]",1080,250,7.05,1000
"CC(C)Nc1nc(-c2ccc(NC(=O)Nc3cccnc3)cc2)nc(N2CC3CCC(C2)O3)c1NC(=O)CCN(C)C [N~3~,N~3~-dimethyl-N-(4-[(1-methylethyl)amino]-6-(8-oxa-3-azabicyclo[3.2.1]oct-3-yl)-2-{4-[(pyridin-3-ylcarbamoyl)amino]phenyl}pyrimidin-5-yl)-beta-alaninamide]",5980,30000,13500,≥ 60000

# More lines, main results first:
IC50 (PI3K-alpha) [nM],IC50 (LNCap) [nM],IC50 (mTOR) [nM],SMILES,IC50 (MDA468) [nM]
2050,450,11,CCNC(=O)Nc1ccc(-c2nc(-c3ccccc3)cc(N3CC4CCC(C3)O4)n2)cc1 [1-ethyl-3-{4-[4-(8-oxa-3-azabicyclo[3.2.1]oct-3-yl)-6-phenylpyrimidin-2-yl]phenyl}urea],1900
212,13.4,4.17,CC(C)Nc1cc(N2CC3CCC(C2)O3)nc(-c2ccc(NC(=O)Nc3ccc(N4CCN(C)CC4)cc3)cc2)n1 [1-(4-{4-[(1-methylethyl)amino]-6-(8-oxa-3-azabicyclo[3.2.1]oct-3-yl)pyrimidin-2-yl}phenyl)-3-[4-(4-methylpiperazin-1-yl)phenyl]urea],50
2430,78,17.5,CN1CCN(c2ccc(NC(=O)Nc3ccc(-c4nc(-c5ccccc5)cc(N5CC6CCC(C5)O6)n4)cc3)cc2)CC1 [1-[4-(4-methylpiperazin-1-yl)phenyl]-3-{4-[4-(8-oxa-3-azabicyclo[3.2.1]oct-3-yl)-6-phenylpyrimidin-2-yl]phenyl}urea],270
141,120,19,CN(C)CCOc1ccc(NC(=O)Nc2ccc(-c3nc(-c4ccccc4)cc(N4CC5CCC(C4)O5)n3)cc2)cc1 [1-{4-[2-(dimethylamino)ethoxy]phenyl}-3-{4-[4-(8-oxa-3-azabicyclo[3.2.1]oct-3-yl)-6-phenylpyrimidin-2-yl]phenyl}urea],300
452,600,21.5,O=C(Nc1ccc(-c2nc(-c3ccccc3)cc(N3CC4CCC(C3)O4)n2)cc1)OCCO [2-hydroxyethyl {4-[4-(8-oxa-3-azabicyclo[3.2.1]oct-3-yl)-6-phenylpyrimidin-2-yl]phenyl}carbamate],5500
1930,210,30,CN(Cc1ccc(NC(=O)Nc2ccc(-c3nc(CS(C)(=O)=O)cc(N4CC5CCC(C4)O5)n3)cc2)cc1)C(=O)OC(C)(C)C [tert-butyl methyl(4-{[(4-{4-[(methylsulfonyl)methyl]-6-(8-oxa-3-azabicyclo[3.2.1]oct-3-yl)pyrimidin-2-yl}phenyl)carbamoyl]amino}benzyl)carbamate],470
